Measured values as given in patent US6933272B1 (priority 1998, dated 2005).
Read-outs that look alike come from different tables or passages of the source.

How the values were obtained:
3T3L1 adipocyte cells = experiment: Glucose transport (3H-deoxyglucose uptake) in 3T3L1 adipocyte cells; type: cell-based, mouse
Experimental: Glucose transport was determined using a modification of the method of S. J. Isakoff et at. (23). The assay involved measuring the effect of compounds on the uptake of ^3H-deoxyglucose into 3T3L1 adipocyte cells.
The cell line, 3T3-L1, derived from mouse embryo fibroblasts, was grown in 250 mL tissue culture flasks containing 15 mL medium made up of DMEM (Dulbecco's modified Eagle's medium containing glutamine, 2 mM; sodium bicarbonate, 30 mM; penicillin 71.5 mg/litre; streptomycin, 152.5 mg/litre) supplemented with 10% foetal calf serum (FCS), pH 7.4. Cells were maintained in a humidified incubator at 37° C. in a 5% CO2 environment. The medium was changed every 3 days and the cells were split when they were about 70-80% confluent.
3T3-L1 fibroblast cells from one tissue culture flask were suspended in 50 mL of DMEM media containing 10% FCS and 0.5 mL of this suspension were seeded into each well of two 48-well tissue culture plates. The differentiation of the cells was initiated when the fibroblast cells were fully confluent. Routinely, differentiation was induced on cells that had been growing in tissue culture plates for 4-5 days. […] The cells were subsequently maintained with DMEM medium containing 10% FCS.
One day prior to the glucose transport assay, cell medium was replaced with DMEM containing 10% charcoal-treated foetal calf serum (CTFCS). On the day of the assay, the medium was aspirated and each well was washed with 1 mL of 25 mM Hepes, pH 7.4 containing 0.9% NaCl (NaCl-HEPES). […] Ten microlitres of NaCl-HEPES containing 3 mM 2-deoxy-D-glucose and 0.1 μCi 2-deoxy-D-[1-^3H]glucose were then added. Following a 10 min incubation at 37° C., the medium was aspirated off and the wells rapidly washed three times with 1 mL of ice-cold 50 mM phosphate, pH 7.5 containing 150 mM NaCl (PBS) and 10 mM glucose. Two hundred microlitres of 3% Triton X-100 was then added to each well and left to incubate for a minimum of 10 minutes. One hundred microlitres of the solubilised cells was then added to 2.5 mL of liquid scintillation fluid and counted for radioactivity in a Beckman β-counter.

insulin receptor [1] = target: T1, insulin receptor (Homo sapiens, UniProt P06213); experiment: 125I insulin binding to wheat germ agglutinin purified insulin receptors (WGA.IR); parameters: host or cells: several: placental membranes, CHO.T11 cells, WGA purified receptors; conditions: LIGAND 1-site fit
Experimental: (§1) Tubes were mixed and incubated for 16 h at 4° C. After the incubation, the tubes were placed on ice and 300 μL of a 1:5 suspension of 0.4% bovine-γ-globulin in 20% polyethyleneglycol 6000 (BDH chemicals) was added to each tube, mixed thoroughly and left to incubate for 30 min on ice. The tubes were then centrifuged (3,000 g) for 30 min at 4° C., the supernatant was aspirated off and the pellet counted for radioactivity. […] Inhibition constants were estimated by graphical analysis of displacement plots or calculated using the curve fitting programs EBDA and/or LIGAND.
Target sequence in this assay (P06213 28-758 limits assumed): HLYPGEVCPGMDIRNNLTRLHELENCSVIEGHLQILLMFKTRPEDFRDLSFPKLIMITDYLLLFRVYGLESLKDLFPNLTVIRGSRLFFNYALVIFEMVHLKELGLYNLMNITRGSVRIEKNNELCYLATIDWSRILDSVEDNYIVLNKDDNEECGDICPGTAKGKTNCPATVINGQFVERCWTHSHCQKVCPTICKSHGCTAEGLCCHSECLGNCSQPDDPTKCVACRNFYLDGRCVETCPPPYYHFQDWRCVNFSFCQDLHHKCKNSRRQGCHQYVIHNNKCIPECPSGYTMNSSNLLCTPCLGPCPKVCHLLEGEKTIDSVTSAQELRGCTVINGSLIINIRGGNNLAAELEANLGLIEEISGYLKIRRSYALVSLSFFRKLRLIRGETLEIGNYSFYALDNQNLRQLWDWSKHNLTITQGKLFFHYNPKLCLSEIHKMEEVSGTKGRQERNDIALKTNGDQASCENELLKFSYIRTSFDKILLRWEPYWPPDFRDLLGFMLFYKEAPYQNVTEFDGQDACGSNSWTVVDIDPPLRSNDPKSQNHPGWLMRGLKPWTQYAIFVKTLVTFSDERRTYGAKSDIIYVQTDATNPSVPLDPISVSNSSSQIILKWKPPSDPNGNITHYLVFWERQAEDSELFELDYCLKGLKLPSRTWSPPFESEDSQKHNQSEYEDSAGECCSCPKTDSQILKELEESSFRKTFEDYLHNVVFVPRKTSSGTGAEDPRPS

insulin receptor [2] = target: T1, insulin receptor; experiment: 125I insulin binding to human placental plasma membranes (HPPM); parameters: Human Placental Plasma Membranes—50 mM Hepes, pH 7.8 @ 4 C containing 100 U/mL Bacitracin; from tissue; host or cells: human placenta, plasma membranes
Experimental: as §1
Target sequence in this assay (P06213 28-758 limits assumed): as above

insulin receptor [3] = target: T1, insulin receptor; experiment: Assays of insulin action (several biological assays, classification agonist/antagonist)
Target sequence in this assay (P06213 with tags, fused parts or gaps): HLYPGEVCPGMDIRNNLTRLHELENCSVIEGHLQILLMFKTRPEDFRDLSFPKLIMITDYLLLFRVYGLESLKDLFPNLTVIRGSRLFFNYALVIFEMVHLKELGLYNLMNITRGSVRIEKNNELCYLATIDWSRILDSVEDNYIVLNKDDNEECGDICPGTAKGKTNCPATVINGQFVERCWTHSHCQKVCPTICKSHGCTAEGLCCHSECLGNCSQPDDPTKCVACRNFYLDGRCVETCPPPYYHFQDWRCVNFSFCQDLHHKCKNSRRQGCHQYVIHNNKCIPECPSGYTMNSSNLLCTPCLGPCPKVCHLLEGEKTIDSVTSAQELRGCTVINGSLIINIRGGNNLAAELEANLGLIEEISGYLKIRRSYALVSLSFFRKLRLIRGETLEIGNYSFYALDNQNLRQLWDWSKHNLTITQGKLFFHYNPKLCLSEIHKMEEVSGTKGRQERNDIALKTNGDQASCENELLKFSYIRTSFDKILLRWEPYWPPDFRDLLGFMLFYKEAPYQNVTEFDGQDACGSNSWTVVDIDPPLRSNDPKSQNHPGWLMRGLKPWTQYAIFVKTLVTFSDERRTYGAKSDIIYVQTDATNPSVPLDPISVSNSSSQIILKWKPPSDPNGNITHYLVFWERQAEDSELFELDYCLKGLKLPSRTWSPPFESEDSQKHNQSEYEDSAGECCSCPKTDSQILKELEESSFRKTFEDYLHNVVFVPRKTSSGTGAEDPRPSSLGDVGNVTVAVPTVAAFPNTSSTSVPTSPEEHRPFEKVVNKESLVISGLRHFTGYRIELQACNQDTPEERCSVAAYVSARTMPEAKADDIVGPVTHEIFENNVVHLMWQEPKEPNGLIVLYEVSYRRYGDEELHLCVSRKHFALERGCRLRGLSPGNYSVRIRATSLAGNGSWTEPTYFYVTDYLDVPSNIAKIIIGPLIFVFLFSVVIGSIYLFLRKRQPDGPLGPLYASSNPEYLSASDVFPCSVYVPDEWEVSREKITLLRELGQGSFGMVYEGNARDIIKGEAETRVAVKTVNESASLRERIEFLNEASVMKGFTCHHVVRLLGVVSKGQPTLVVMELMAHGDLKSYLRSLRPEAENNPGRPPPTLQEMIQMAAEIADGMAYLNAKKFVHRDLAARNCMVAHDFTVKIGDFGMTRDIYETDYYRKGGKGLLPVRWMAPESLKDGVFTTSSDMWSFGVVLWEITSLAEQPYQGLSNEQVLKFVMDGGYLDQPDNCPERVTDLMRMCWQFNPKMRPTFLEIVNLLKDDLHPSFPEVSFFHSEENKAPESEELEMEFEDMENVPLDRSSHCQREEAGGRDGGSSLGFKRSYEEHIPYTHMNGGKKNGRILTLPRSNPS

IGF-1 receptor = IGF-1 receptor (Homo sapiens, UniProt P08069); experiment: 125I IGF-1 binding to human placental plasma membranes (HPPM); parameters: from tissue; host or cells: human placenta, plasma membranes; conditions: HPPM; read-out: Ki, competition for 125I IGF-1 binding
IGF-1 receptor, sequence (P08069 31-736 limits assumed): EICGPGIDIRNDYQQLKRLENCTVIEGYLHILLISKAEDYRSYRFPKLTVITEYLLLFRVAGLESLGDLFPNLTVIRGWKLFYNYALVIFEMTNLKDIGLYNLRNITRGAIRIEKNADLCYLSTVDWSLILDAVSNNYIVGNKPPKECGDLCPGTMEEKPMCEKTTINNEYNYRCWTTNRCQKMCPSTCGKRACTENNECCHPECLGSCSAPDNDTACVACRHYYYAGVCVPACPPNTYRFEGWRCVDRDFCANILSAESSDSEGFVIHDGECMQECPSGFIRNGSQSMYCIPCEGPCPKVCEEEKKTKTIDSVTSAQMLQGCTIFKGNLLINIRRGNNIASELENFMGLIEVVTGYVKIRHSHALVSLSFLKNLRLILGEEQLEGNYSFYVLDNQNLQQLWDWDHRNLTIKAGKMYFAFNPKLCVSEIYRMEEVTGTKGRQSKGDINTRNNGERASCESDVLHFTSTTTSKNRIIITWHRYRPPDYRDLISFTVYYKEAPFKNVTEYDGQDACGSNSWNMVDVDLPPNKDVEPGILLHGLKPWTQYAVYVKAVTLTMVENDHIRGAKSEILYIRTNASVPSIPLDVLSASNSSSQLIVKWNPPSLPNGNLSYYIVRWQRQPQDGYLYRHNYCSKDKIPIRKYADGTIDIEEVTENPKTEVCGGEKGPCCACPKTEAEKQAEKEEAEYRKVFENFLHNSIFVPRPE

insulin receptor [4] = target: T1, insulin receptor; experiment: 125I insulin binding to CHO.T11 cells; parameters: expressed in transfected cells
Experimental: as §1
Target sequence in this assay (P06213 28-758 limits assumed): as the sequence (P06213 28-758 limits assumed) above

[5] = target: insulin receptor β-subunit associated tyrosine kinase activity (Homo sapiens, UniProt P06213); experiment: Protein tyrosine kinase (PTK) assay, 32P incorporation into FYF peptide; type: biochemical; conditions: for effect of compound alone on 32P incorporation into FYF peptide: basal, absence of insulin; for Ki: read-out: estimated inhibition constant, PTK assay
insulin receptor β-subunit associated tyrosine kinase activity, sequence (P06213 28-758 limits assumed): as above
Experimental: Protein tyrosine kinase activity was determined using a modification of the method of N. Konstantopoulos (22).
The reaction was allowed to proceed for 20 minutes at 30° C. before it was terminated by the addition of 12.5 μL of 7.5 M guanidine hydrochloride. An aliquot (10 μL) of the reaction mixture was then spotted onto a Whatman 81 phosphocellulose paper (15 mm×15 mm), washed three times (2 min per wash) in about 50 mL of 30% acetic acid, 0.05% orthophosphoric acid then finally, with one wash in about 200 mL of water. The papers were then rinsed briefly (15 sec) in 95% ethanol, dried, suspended in 2.5 mL of scintillation fluid (Beckman) and counted for radioactivity in a Beckman β-counter.

insulin receptor [6] = target: T1, insulin receptor; experiment: 125I insulin binding, insulin receptors from a number of sources; parameters: host or cells: several: placental membranes, CHO.T11 cells, WGA purified receptors; conditions: range over receptor sources
Experimental: as §1
Target sequence in this assay (P06213 28-758 limits assumed): as above

[7] = human placental plasma membranes, 16 h at 4° C.
[8] = 3T3L1 cells, 2 nM insulin; read-out: estimated inhibition constant (Ki), glucose transport assay
[9] = Mus musculus, 3T3-L1; read-out: estimated IC50, glucose transport
[10] = read-out: estimated IC50, 32P incorporation into FYF peptide

| Ki (insulin receptor [1]) | Ki (insulin receptor [2]; [7]) | classification of insulin action (insulin receptor [3]) | Ki [5] | Compound | Ki (3T3L1 adipocyte cells; [8]) | effect of compound alone on glucose transport (3T3L1 adipocyte cells; basal, no insulin) | effect of compound alone on 32P incorporation into FYF peptide [5] | further results |
| --- | --- | --- | --- | --- | --- | --- | --- | --- |
| 83 µM | 137 ± 45 µM | agonists of insulin action |  | O=S(=O)(NS(=O)(=O)C(F)(F)F)c1cc(Cl)cc(Cl)c1OS(=O)(=O)c1cc(Cl)cc(Cl)c1O [IM 103, 2,4-dichloro-6-(N-(trifluoromethanesulfonyl))sulfamoylphenyl 3,5-dichloro-2-hydroxybenzenesulfonate] |  |  |  | EC50 (3T3L1 adipocyte cells; Mus musculus, 3T3-L1; compound alone; read-out: apparent EC50, stimulation of glucose transport): 45 ± 7 µM; efficacy compared with insulin, glucose transport (3T3L1 adipocyte cells; compound alone, relative to maximal dose of insulin (100 nM)): about 15%; concentration at apex of bi-phasic dose response curve (3T3L1 adipocyte cells; glucose transport): 110 µM; effect on insulin stimulated glucose transport (3T3L1 adipocyte cells; in presence of insulin (2 nM)): abolishes the insulin stimulation of glucose transport in a dose dependent manner; Ki (IGF-1 receptor): 59 µM; Ki (insulin receptor [4]): 132 ± 29 µM |
|  | 900 µM | antagonists of insulin action | 130 µM | CCCc1c(OCc2ccc3ccccc3c2)ccc2c1OC(C(=O)O)CC2 (stereo not shown) [IM 144, 7-(naphth-2′-ylmethoxy)-8-propyl-3,4-dihydro-2H-1-benzopyran-2-carboxylic acid] | 125 µM | does not increase ^32P incorporation into FYF peptide or activate glucose transport | does not increase ^32P incorporation into FYF peptide |  |
|  |  | antagonists of insulin action |  | CCCc1c(OCc2ccc3ccccc3n2)ccc2c1OC(C(=O)O)CC2 (stereo not shown) [IM 143, 8-propyl-7-(quinol-2′-ylmethoxy)-3,4-dihydro-2H-1-benzopyran-2-carboxylic acid] | 40 µM | does not stimulate glucose transport activity |  | Ki (insulin receptor [2]; human placental plasma membranes): ~2000 µM |
|  |  | antagonists of insulin action | 360 µM | CCCc1c(OCCCOc2cc(O)c(-c3cc[nH]n3)cc2CC)ccc2c1OC(C(=O)O)CC2 (stereo not shown) [IM 132, 3,4-dihydro-8-propyl-7-[[3-[2-ethyl-5-hydroxy-4-(1H-pyrazol-3-yl)phenoxy]propyl]oxy]-2H-1-benzopyran-2-carboxylic acid] | 64 µM | does not increase ^32P incorporation into FYF peptide or activate glucose transport | does not increase ^32P incorporation into FYF peptide | effect on insulin stimulated glucose transport (3T3L1 adipocyte cells; in presence of insulin (2 nM)): significant synergism with insulin; Ki (insulin receptor [6]): 200 to 450 µM |
|  |  | antagonists of insulin action |  | CCCc1c(OCCCOc2cc(O)c(C(C)=O)cc2CC)ccc2c1OC(C(=O)O)CC2 (stereo not shown) [IM 071, 7-[3-(4-acetyl-2-ethyl-5-hydroxyphenoxy)propoxy]-3,4-dihydro-8-propyl-2H-1-benzopyran-2-carboxylic acid] |  |  |  |  |
| 295 µM | 140 to 320 µM | antagonists of insulin action |  | CCCc1c(COc2ccc3c(=O)cc(C(=O)O)oc3c2CCC)ccc(C(C)=O)c1O [IM 127, 7-[(4-acetyl-3-hydroxy-2-propylphenyl)methoxy]-4-oxo-8-propyl-4H-1-benzopyran-2-carboxylic acid] | 60 µM |  |  |  |
|  | 370 µM | antagonists of insulin action |  | CCCc1c(OCCCOc2cc(O)c(-c3ccc(F)cc3)cc2CC)ccc2c1OC(C(=O)O)CC2 (stereo not shown) [IM 171, 8-propyl-7-[3-[4-(4-fluorophenyl)-2-ethyl-5-hydroxyphenoxy]propoxy]-3,4-dihydro-2H-1-benzopyran-2-carboxylic acid] |  | does not increase ^32P incorporation into FYF peptide or activate glucose transport | does not increase ^32P incorporation into FYF peptide | IC50 (3T3L1 adipocyte cells; [9]): 80 µM; IC50 [5, 10]: 250 µM |
|  | 900 µM | antagonists of insulin action | 300 to 400 µM | CCCc1c(OCCCOc2cc(O)c(OCC)cc2CC)ccc2c1OC(C(=O)O)CC2 (stereo not shown) [IM 134, 3,4-dihydro-8-propyl-7-[[3-[2-ethyl-5-hydroxy-4-ethoxyphenoxy]propyl]oxy]-2H-1-benzopyran-2-carboxylic acid] | 60 to 110 µM | does not increase ^32P incorporation into FYF peptide or glucose transport | does not increase ^32P incorporation into FYF peptide |  |

| Compound | Ki (insulin receptor [1]) | Ki (insulin receptor [2]; [7]) | classification of insulin action (insulin receptor [3]) | Ki [5] | Ki (3T3L1 adipocyte cells; [8]) | effect of compound alone on glucose transport (3T3L1 adipocyte cells; basal, no insulin) | effect of compound alone on 32P incorporation into FYF peptide [5] | further results |
| --- | --- | --- | --- | --- | --- | --- | --- | --- |
| CCCN(CCC)c1c([N+](=O)[O-])cc(S(=O)(=O)NS(=O)(=O)C(F)(F)F)cc1[N+](=O)[O-] [IM 145, N-(trifluoromethanesulfonyl)-3,5-dinitro-4-(N′,N′-dipropylamino)benzenesulfonamide] |  |  | antagonists of insulin action |  |  | does not stimulate PTK or glucose transport activity | does not stimulate PTK | IC50 (3T3L1 adipocyte cells; Mus musculus, 3T3-L1, read-out: estimated IC50, glucose transport): 60 µM; Ki (insulin receptor [2]): ~1000 µM; IC50 [5]: 90 µM |
| O=C(O)c1cc2ccccc2c(Cc2c(O)c(C(=O)O)cc3ccccc23)c1O [IM 025, 4,4′-Methylenebis[3-hydroxy-2-naphthalenecarboxylic acid]] | 108 ± 32 µM |  | antagonists of insulin action |  |  |  |  | IC50 (3T3L1 adipocyte cells; [9]): 170 µM; Ki (insulin receptor [4]): 137 to 337 µM; Ki (insulin receptor [6]): 100 to 400 µM; IC50 [5, 10]: 150 µM |
